Tests used:
[1] = PET imaging and ex vivo biodistribution studies; assay type: in vivo, athymic nude mice; settings: for SUV Average ± SD: day 7 post-injection, free [^89Zr]ZrCl4, tail vein, n = 3
Description: 8-10 weeks old Athymic nude mice (male and female, 1:1) were obtained from Charles Rivers Laboratories or Taconic Biosciences, Inc.
After radiolabeling, the radiolabeled WBCs-0.1-0.6×10^6 (0.03-0.11 MBq); and SCs-0.1-1×10^6 (0.1-0.15 MBq) were injected in a group (n=3) of athymic nude mice, via tail vein injection. PET images were acquired at 4 hours, 2 days, 4 days and 7 days post-injection (p.i.) using microPET scanner. The free [^89Zr] ZrCl4 with radioactivity (0.15-0.19 MBq) was also injected intravenously via tail vein injection. The micro PET images were analyzed and scaled to SUV by image analysis software. The animals were euthanized at 7 days p.i., and organs/tissues were collected to measure standardized uptake value (SUV) in major organs. Animals were euthanized via cardiectomy under anesthesia using isoflurane as approved by the Institutional Animal Care and Use Committee (IACUC) of the Mayo Clinic Rochester MN, USA.

[2] = Stability of HPLC-purified [^89Zr]Zr-DBN with and without ascorbic acid (HPLC); assay type: physicochemical; settings: for stability of [^89Zr]Zr-DBN: stored at -20° C.
Description: The purified and concentrated [^89Zr] Zr-DBN was stored at −20° C. and stability was tested at 0 hours, 24 hours, and 72 hours post HPLC purification and concentration in comparison with unpurified [^89Zr] Zr-DBN which was also stored at −20° C. To test the stability, the frozen [^89Zr] Zr-DBN was allowed to come to room temperature and reconstituted with ˜100 μL DMSO. The reconstituted [^89Zr] Zr-DBN (˜ 3.7 MBq) was diluted with ˜900 μL neutralized deionized water (pH 7.0) and pH was further adjusted to pH 7.0 using 1M Na2CO3. The stability of reconstituted and neutralized [^89Zr] Zr-DBN was tested using the same HPLC method that was used for [^89Zr] Zr-DBN purification.
The HPLC purified [^89Zr] Zr-DBN (˜7.2 mL) was divided into two equal parts of ˜3.6 mL each. In one-part, 25 μL of 200 mg/mL ascorbic acid (Sigma Aldrich, St. Louis, MO, USA) was added. Both ascorbic acid treated, and untreated fractions were concentrated at 0.42 torr and room temperature. […] Zr-DBN purification.

[3] = test system: human decidual stromal cells (hDSCs), bone marrow-derived macrophages (rMac) and human peripheral blood mononuclear cells (hPBMCs); settings: Ref. 72; cited from earlier work

Compound: [Cl][89Zr]([Cl])([Cl])[Cl] [[^89Zr]ZrCl4, [^89Zr] ZrCl4]
- SUV Average ± SD ([1]; Bladder): 0.32 ± 0.09
- SUV Average ± SD ([1]; Blood): 0.12 ± 0.01
- SUV Average ± SD ([1]; Bone): 9.89 ± 0.4
- SUV Average ± SD ([1]; Brain): 0.02 ± 0.02
- SUV Average ± SD ([1]; Heart): 0.26 ± 0.03
- SUV Average ± SD ([1]; Intestine): 0.09 ± 0.01
- SUV Average ± SD ([1]; Kidney): 0.49 ± 0.07
- SUV Average ± SD ([1]; Liver): 0.61 ± 0.07
- SUV Average ± SD ([1]; Lung): 0.36 ± 0.06
- SUV Average ± SD ([1]; Muscle): 0.14 ± 0.05
- SUV Average ± SD ([1]; Pancreas): 0.29 ± 0.02
- SUV Average ± SD ([1]; Skin): 0.42 ± 0.14
- SUV Average ± SD ([1]; Spleen): 0.39 ± 0.09
- SUV Average ± SD ([1]; Urine): 0.08 ± 0.03
- distribution of radioactivity on micro PET imaging ([1]; intravenous injection, 4 hours, 2 days, 4 days, 7 days): high accumulation of free ^89Zr in the bones

Compound: [^89Zr] zirconium-p-isothiocyanatobenzyl-desferrioxamine [[^89Zr] Zr-DBN]
- stability of [^89Zr]Zr-DBN ([2]; 72 hours post HPLC purification, without ascorbic acid): 66%
- stability of [^89Zr]Zr-DBN ([2]; 72 hours, with addition of ascorbic acid (25 μL of 200 mg/mL)): > 82%
- enhancement of the 27.1 minutes HPLC peak for [^89Zr]Zr-DBN by ascorbic acid ([2]; immediately after concentration, ascorbic acid added before the concentration step): ~12%

Compound: [89Zr+4].[O-]c1cccc2cccnc12.[O-]c1cccc2cccnc12.[O-]c1cccc2cccnc12.[O-]c1cccc2cccnc12 [[^89Zr] Zr-oxine]
- apparent efflux of ^89Zr from the labeled cells [3]: 29-38%

— patent publication US20250135049A1, “Methods for Biological Material Labeling and Medical Imaging” (Mayo Foundation for Medical Education and Research, priority 2021, published 2025)
